# Assays:
# [1] = human, in vivo
# [2] = tested on: Pneumocystis carinii; assay type: in vivo, human
# [3] = single 4 mg/kg intravenous dose, AIDS patients with P. carinii; cited from earlier work
# [4] = 13 patients treated successfully
smiles,measurement,setting,value
"N=C(N)c1ccc(OCCCCCOc2ccc(C(=N)N)cc2)cc1 [pentamidine, p,p'-(pentamethylenedioxy)dibenzamidine]",frequent adverse effect observed clinically,[1],transient airway irritation
same,relapse,[2]; 13 patients followed 2-4 months,No patient presented evidence of relapse
same,arterial oxygenation and vital capacity,[2]; [4],Eleven of the 13 patients showed improvements of their arterial oxygenation and vital capacity
same,"dyspnea, respiratory rate and fever",[2]; [4],"marked reduction in dyspnea, respiratory rate and fever"
same,radiographic improvement,[2]; [4],"4 had radiographic improvement beginning by the second week of therapy and Five patients showed worsened radiographic infiltrates at one week with subsequent improvement and remaining 4 patients had worsened radiographic infiltrates or no improvement for the first two weeks of therapy, then improvement"
same,overall efficacy rate,"[2]; 95% confidence limits, 58% to 98%",87%
same,Pre therapy DLCO,[2]; baseline,64.9 percent predicted
same,Pre therapy PaO2,[2]; baseline,67.9 torr
same,Pre therapy Vital Capacity,[2]; baseline,50.8 percent predicted
same,subjective and objective improvement,"[2]; human, in vivo",Thirteen of 15 patients had subjective and objective improvement
same,time of clinical improvement,"[2]; human, in vivo","Ten patients had clinical improvement in the first week of therapy, and 3 patients during the second week of therapy"
same,"Successful Treatment W/ Change, %",[2]; n = 15,93%
same,"Successful Treatment w/o Change, %",[2]; n = 15,86%
same,treatment failure / death,"[2]; one patient with concomitant tuberculosis therapy, changed to TMP-SMX on day 7",died of progressive respiratory failure
same,Post therapy DLCO,[2]; post therapy,61.7 percent predicted
same,Post therapy PaO2,[2]; post therapy,80.1 torr
same,Post therapy Vital Capacity,[2]; post therapy,61.8 percent predicted
same,mean peak serum pentamidine concentration,[3],612 ng/mL

# Reference: patent US5364615A (priority 1992, dated 1994)
